Consider 14 compounds from patent US11883383B2, “Pharmaceutically acceptable salts of [3-(4- {2-butyl-1-[4-(4-chloro-phenoxy)-phenyl]-1H-imidazol-4-yl} -phenoxy)-propyl]-diethyl-amine” (vTv Therapeutics LLC, priority 2018, dated 2024).

Common to all, as to type: physicochemical
Data set [1] in a line: Thermogravimetric analysis (TGA) weight loss of crystalline hits. As to conditions: for Speculated Form: based on TGA/DSC characterization data. The method, then:
(§1) TGA data were collected using a TA Q500 and Q550 from TA Instruments. DSC was performed using a TA Q2000 from TA Instruments. DSC was calibrated with Indium reference standard and the TGA was calibrated using nickel reference standard.
(§2) All hits were further characterized by TGA and DSC, with the stoichiometry determined by ^1H NMR or HPLC/IC. Based on the characterization data in Table 2 below, most of them were considered to be anhydrates.

Data set [2] can be described thus: Differential scanning calorimetry (DSC) endotherms of crystalline hits. To be noted: for DSC Endo. (onset, ° C.): onset temperature; for DSC Endo., peak temperature: peak temperature (footnote *). As for the experimental part: as §1, §2
On the technique in general: In DSC, transitions show as peaks or steps in heat flow.

The nature of data set [3]: Stoichiometry (acid/freebase) by 1H NMR or HPLC/IC.
Description: Solution NMR was collected on Bruker 500M NMR Spectrometer using DMSO-d6 and CD3OD as solvents.
Agilent 1100 HPLC was utilized to analyze the purity and stoichiometry, with detailed method listed in below.
IC method for counter-ion content measurement is listed below.
as §2

Data set [4] in a line: Storage of the solid salt at ambient conditions (physical stability / hygroscopicity). An excerpt: One mesylate crystal form was obtained via screening. Mesylate Type A was generated via reactive crystallization (molar ratio of 1:1) in ethyl acetate/hexane (1:2, v/v) at RT.

Read-outs that look alike come from different tables or passages of the source.

`CCCCc1nc(-c2ccc(OCCCN(CC)CC)cc2)cn1-c1ccc(Oc2ccc(Cl)cc2)cc1.O=C(O)C(O)C(O)C(=O)O` [L-Tartrate Type A]: the “Speculated Form” value in data set [1] is on record as “Hydrate”. For the same compound, the “TGA Wt. Loss (%)” value in data set [1] (up to 60° C.) is 2.1 up to %. In addition, the “DSC Endo. (onset, ° C.)” value in data set [2] came out at 76.4 °C. The “Stoichiometry (acid/base)” value in data set [3] turned out to be 1.00.

`CCCCc1nc(-c2ccc(OCCCN(CC)CC)cc2)cn1-c1ccc(Oc2ccc(Cl)cc2)cc1.O=C(O)CNC(=O)c1ccccc1` [Hippurate Type A]: in data set [1], the “TGA Wt. Loss (%)” value is listed as “negligible” and the “Speculated Form” value is reported as “Anhydrate”. Further, in data set [2], the “DSC Endo. (onset, ° C.)” value came to 72.7 °C and the “DSC Endo., peak temperature” value is 44.3 °C. Besides, in data set [3], the “Stoichiometry (acid/base)” value is 0.98.

As for `CCCCc1nc(-c2ccc(OCCCN(CC)CC)cc2)cn1-c1ccc(Oc2ccc(Cl)cc2)cc1.O=C1NS(=O)(=O)c2ccccc21` [Saccharinate Type A], in data set [1], the “TGA Wt. Loss (%)” value was “negligible” and the “Speculated Form” value is recorded as “Anhydrate”. Moreover, the “DSC Endo. (onset, ° C.)” value in data set [2] was found to be 120.0 °C. Also, the “Stoichiometry (acid/base)” value in data set [3] amounted to 1.22.

Consider `CCCCc1nc(-c2ccc(OCCCN(CC)CC)cc2)cn1-c1ccc(Oc2ccc(Cl)cc2)cc1.O=C(O)c1cc(O)ccc1O` [Gentisate Type B], for which, in data set [1], the “TGA Wt. Loss (%)” value is listed as “negligible” and the “Speculated Form” value is reported as “Anhydrate”. For the same compound, the “DSC Endo. (onset, ° C.)” value in data set [2] was 122.9 °C. The “Stoichiometry (acid/base)” value in data set [3] is listed as 1.03.

`CCCCc1nc(-c2ccc(OCCCN(CC)CC)cc2)cn1-c1ccc(Oc2ccc(Cl)cc2)cc1.O=C(O)[C@@H](O)[C@H](O)[C@H](O)[C@@H](O)C(=O)O` [Galactarate Type A]: the “Speculated Form” value in data set [1] is reported as “Anhydrate”. Also, the “TGA Wt. Loss (%)” value in data set [1] (up to 130° C.) was 0.6 up to %. In data set [2], the “DSC Endo. (onset, ° C.)” value was 158.4 °C and the “DSC Endo., peak temperature” value was 106.3 °C. Further, in data set [3], the “Stoichiometry (acid/base)” value came to 0.98.

For the compound `CCCCc1nc(-c2ccc(OCCCN(CC)CC)cc2)cn1-c1ccc(Oc2ccc(Cl)cc2)cc1.COc1cc(C(=O)O)ccc1O` [Vanillate Type A], in data set [1], the “TGA Wt. Loss (%)” value was “negligible” and the “Speculated Form” value is “Anhydrate”. In addition, in data set [2], the “DSC Endo. (onset, ° C.)” value was 99.6 °C. Moreover, the “Stoichiometry (acid/base)” value in data set [3] is 1.04.

As to `Br.CCCCc1nc(-c2ccc(OCCCN(CC)CC)cc2)cn1-c1ccc(Oc2ccc(Cl)cc2)cc1` [HBr salt Type B], in data set [1], the “TGA Wt. Loss (%)” value is given as “negligible” and the “Speculated Form” value was “Anhydrate”. In addition, the “Stoichiometry (acid/base)” value in data set [3] stood at 2.07.

Consider `CCCCc1nc(-c2ccc(OCCCN(CC)CC)cc2)cn1-c1ccc(Oc2ccc(Cl)cc2)cc1.CS(=O)(=O)O` [Mesylate Type A], for which the “Storage at ambient conditions” value in data set [4] (ambient conditions) is “+”. Further, in data set [4] (ambient conditions, inferred from conversion to gel), the “Hygroscopicity / stability under ambient conditions, as suggested by the gel conversion” value was “highly hygroscopic and unstable”. For the same compound, in data set [4] (solid, storage at ambient conditions), the “Physical stability of the sample after storage at ambient conditions” value was “converted to gel”.

For `CCCCc1nc(-c2ccc(OCCCN(CC)CC)cc2)cn1-c1ccc(Oc2ccc(Cl)cc2)cc1.O=C(O)/C=C\C(=O)O` [Maleate Type A], in data set [1], the “TGA Wt. Loss (%)” value is “negligible” and the “Speculated Form” value is given as “Anhydrate”. For the same compound, the “DSC Endo. (onset, ° C.)” value in data set [2] was 120.2 °C. In addition, the “Stoichiometry (acid/base)” value in data set [3] was determined as 0.97.

Take `CCCCc1nc(-c2ccc(OCCCN(CC)CC)cc2)cn1-c1ccc(Oc2ccc(Cl)cc2)cc1.Cl` [HCl salt Type A]: in data set [1], the “TGA Wt. Loss (%)” value was “negligible” and the “Speculated Form” value is “Anhydrate”. In addition, in data set [2], the “DSC Endo. (onset, ° C.)” value came to 167.0 °C. The “Stoichiometry (acid/base)” value in data set [3] was found to be 1.33.

Regarding `CCCCc1nc(-c2ccc(OCCCN(CC)CC)cc2)cn1-c1ccc(Oc2ccc(Cl)cc2)cc1.O=C(O)C(=O)O` [Oxalate Type A], in data set [1], the “TGA Wt. Loss (%)” value is given as “negligible” and the “Speculated Form” value is “Anhydrate”. Besides, the “DSC Endo. (onset, ° C.)” value in data set [2] came to 109.5 °C. In addition, the “Stoichiometry (acid/base)” value in data set [3] was determined as 1.12.

In the case of `CCCCc1nc(-c2ccc(OCCCN(CC)CC)cc2)cn1-c1ccc(Oc2ccc(Cl)cc2)cc1.O=C(O)C[C@H](O)C(=O)O` [L-Malate Type A], in data set [1], the “TGA Wt. Loss (%)” value is reported as “negligible” and the “Speculated Form” value was “Anhydrate”. The “DSC Endo. (onset, ° C.)” value in data set [2] came to 67.8 °C. The “Stoichiometry (acid/base)” value in data set [3] is reported as 1.11.

As for `Br.CCCCc1nc(-c2ccc(OCCCN(CC)CC)cc2)cn1-c1ccc(Oc2ccc(Cl)cc2)cc1` [HBr salt Type A], in data set [1], the “TGA Wt. Loss (%)” value is given as “negligible” and the “Speculated Form” value is listed as “Anhydrate”. For the same compound, the “DSC Endo. (onset, ° C.)” value in data set [2] stood at 169.9 °C. The “Stoichiometry (acid/base)” value in data set [3] came to 1.05.

Take `CCCCc1nc(-c2ccc(OCCCN(CC)CC)cc2)cn1-c1ccc(Oc2ccc(Cl)cc2)cc1.O=C(O)/C=C/C(=O)O` [Fumarate Type A]: in data set [1], the “TGA Wt. Loss (%)” value was “negligible” and the “Speculated Form” value is “Anhydrate”. Besides, the “DSC Endo. (onset, ° C.)” value in data set [2] was determined as 115.0 °C. For the same compound, the “Stoichiometry (acid/base)” value in data set [3] is reported as 1.00.
